Assay results: ChEMBL document CHEMBL3507680, “University of Dundee, Gates Library screen for HepG2 cell viability”

Test: Human HepG2 cell viability assay in 384 well format
Format: toxicity, cell-based
Design: dose 125 nL, time 70.5 hour; cytotoxicity at 70.5 h: concentration not given beside the values
Conditions: HepG2 cells, read-out: Inhibition

Compound | cytotoxicity at 70.5 h [%]
O=C(C1CCN(c2cccnn2)C1)N1CCOCC1 (stereo not given) | 1.06
CNC(=O)c1cn[nH]c1C1(C)CCCN(Cc2ccccc2OC)C1 (stereo not given) | 3.23
CCCc1ncc(CNC2(c3ccc(Cl)cc3)CCC2)cn1 | -4.55
CC(C)c1ncc(CNC2(c3ccc(Cl)cc3)CC2)cn1 | -1.4
COCCc1ncc(CNC2(c3ccc(Cl)cc3)CC2)cn1 | 0.0528
c1ccc(-c2cc(CNCCN3CCCC3)c3nnnn3c2)cc1 | -3.47
COc1ccc(CC(=O)N2CCCC2c2nc(C)c(C)c(O)n2)cc1 (stereo not given) | -2.14
Cc1nc(C2CCCN2C(=O)Cc2cccc(F)c2)nc(O)c1C (stereo not given) | 21.4
O=C(c1ccc(F)cc1)N(CCCO)S(=O)(=O)c1cccs1 | -16.3
Cc1ccc(N2CCC(NC(C)c3ccc(C)o3)CC2)nc1 (stereo not given) | -4.68
Cn1cc(C2CCCN2C(=O)CCCc2nc3ccccc3[nH]2)cn1 (stereo not given) | 4.56
O=C(COCC1CC1)N1CCCC1c1nc(-c2ccccc2F)c[nH]1 (stereo not given) | 2.15
Cc1noc(CNc2ccc(CC(=O)N3CCSCC3)cc2)n1 | -5.52
CCc1noc(CNc2ccc(CC(=O)N3CCSCC3)cc2)n1 | -6.52
Cn1c(CS(=O)(=O)Cc2ccc(Cl)cc2)cc(=O)n(C)c1=O | -6.35
Cn1c(CS(=O)(=O)c2ccc(Cl)cc2)cc(=O)n(C)c1=O | -4.14
COc1ccc(C(NC(=O)NCc2nnc3n2CCC3)C2CC2)cc1 (stereo not given) | 14.3
CN(C)C(=O)c1cccc(NC(=O)c2cnn(C)c2)c1 | -4.77
Cc1ccccc1CC(=O)NCCNc1nccc(C(F)(F)F)n1 | -8.29
COc1cccc(C(CO)NC(=O)NC(C)C)c1 (stereo not given) | 11.8
CC(Cc1c(F)cccc1F)NC(=O)NCc1ncnn1C (stereo not given) | -2.54
CC(CCc1cccc(F)c1)NC(=O)NCc1ncnn1C (stereo not given) | -5.76
CC(=O)N1CCCC(c2nc(-c3ccccc3)c[nH]2)C1 (stereo not given) | -3.53
CC(C)(C)Oc1ccncc1NCc1cscn1 | -3.05

Compound | cytotoxicity at 70.5 h [%]
COc1cccc(C(CO)NC(=O)Cc2ccc(F)c(Br)c2)c1 (stereo not given) | -3.64
CN(C)C(=O)c1cccc(Nc2cnn(C)c2)c1 | -3.59
CNC(=O)c1cccc(Nc2cnn(C)c2)c1 | -1.28
CCOCCCC(=O)N1CCCC1c1nc(-c2ccccc2F)c[nH]1 (stereo not given) | -2.77
Cn1cc(Nc2cccc(C(=O)N(CC(N)=O)C3CCCC3)c2)cn1 | -3.71
CC(NCCCn1ccnc1)c1ccc(N2CCOC2=O)cc1 (stereo not given) | 16.7
Cc1ccccc1C(C)NC(=O)CN1CCN(Cc2cccs2)CC1 (stereo not given) | 0.186
O=C(CCC1CCCCC1)NCc1nnc2ccccn12 | -1.08
CN(C)Cc1ccccc1NC(=O)c1ccc(C#N)cc1 | -7.54
CN(Cc1nnc2ccccn12)C(=O)CCNC(=O)C(C)(C)C | 17.1
CN(c1ncccc1C#N)C1CCN(Cc2ccncc2)CC1 | -3.31
Cc1nc(-c2ccccc2)sc1C(=O)N(C1CC1)C1CC(=O)NC1=O (stereo not given) | -8.02
Cc1cnc(NS(=O)(=O)c2cccc(C#N)c2)s1 | 20.1
Cc1cccc(NC(=O)CCC(=O)NCC(=O)c2ccccc2F)c1 | 2.08
CC(C)(C)n1cc(CNC2CCN(C(=O)c3ccncc3)CC2)cn1 | -1.24
O=C(CCC(=O)Nc1ccccc1)NCC(=O)c1ccc(F)cc1F | 5.75
O=C1CC(N(C(=O)c2csc(-c3ccccc3)n2)C2CC2)C(=O)N1 (stereo not given) | 10.8
CN(Cc1nnc2ccccn12)C(=O)CCC1CCCC1 | -8.63
CN(c1ncccc1C#N)C1CCN(CCc2ccncc2)CC1 | -1.68
Cc1nc2n(n1)CC(NCc1nc(-c3cccs3)no1)CC2 (stereo not given) | 0.591
CC(C)(C)OC(=O)N1CCC(NCc2cnn(C(C)(C)C)c2)CC1 | -2.5
Cc1nc2cc(=O)[nH]n2c(C)c1CNC(=O)C(C)Cc1ccccc1 (stereo not given) | 3.77
Cc1ccc(CC(=O)NCC(O)c2cc(Cl)cc(Cl)c2)cn1 (stereo not given) | -3.94
CCc1nnc(SC2CCN(c3ccccc3F)C2=O)n1C (stereo not given) | -2.9

Compound | cytotoxicity at 70.5 h [%]
COC(C(=O)NCc1c(C)nc2cc(=O)[nH]n2c1C)c1ccccc1 (stereo not given) | -3.2
Cn1c(N)nnc1SC1CCCN(c2ccccc2F)C1=O (stereo not given) | -1.56
CCOc1ccc(NC(=O)c2[nH]c(C)cc2C)cc1CO | 20.6
CCOc1ccc(NC(=O)c2ccc(C#N)cc2C)cc1CO | -1.73
Cn1c(CO)cnc1SC1CCCN(c2ccccc2F)C1=O (stereo not given) | 6.04
CC(C)(C)n1cc(CNC2CCN(C(=O)c3ccco3)CC2)cn1 | 1.29
CC(NCCCn1cccn1)c1ccc(N2CCCS2(=O)=O)cc1 (stereo not given) | -4.88
CCOc1ccc(NC(=O)Cc2cc(C)[nH]n2)cc1CO | -7.67
COC(=O)c1cccc(C(=O)N(C)Cc2ccsc2)c1 | 22.5
CCN1CCOC(CNCc2cnc(N(CC)CC)s2)C1 (stereo not given) | 5.52
Cc1ccc(S(N)(=O)=O)cc1C(=O)NC1CCCC1 | -1.13
Cc1ncc(C(=O)NCCNc2ccncc2)s1 | -3.98
CCc1ncc(C(=O)NCCNc2ccncc2)s1 | -0.807
COC(=O)N1CCC(NC(=O)c2cc(S(N)(=O)=O)ccc2C)CC1 | 2.43
Cc1cc(N(C)C)nc(N2CCCC2c2ccccn2)n1 (stereo not given) | -3.12
CC(=O)N1CCC(NC(=O)c2cc(S(N)(=O)=O)ccc2C)CC1 | -3.13
O=C(CC1CCCO1)NS(=O)(=O)Cc1cc(-c2ccccc2)no1 (stereo not given) | 20.6
COc1cccc(CN(C)CCCn2cnc3c(N)ncnc32)c1 | -9.38
CN(CCCn1cnc2c(N)ncnc21)Cc1ccccc1 | -4.43
COC(=O)Nc1cccc(C(=O)N(C)Cc2cccc(O)c2)c1 | -6.41
Cc1noc(C)c1CSCc1csc(CS(C)(=O)=O)n1 | 0.624
COc1ccc(OCCN(C)CCCn2cnc3c(N)ncnc32)cc1 | -5.85
CCOc1cccc(COC(=O)c2cc(C)on2)n1 | 1.07
CNC(=O)COc1c(F)cc(Br)cc1C(C)=O | -5.63

Compound | cytotoxicity at 70.5 h [%]
O=C(C1SCCc2ccccc21)N1CCC(O)CC1 (stereo not given) | -7.52
CN(CC(=O)NS(=O)(=O)c1ccc(F)cc1)Cc1ccccc1 | -3.97
Cc1n[nH]c(C)c1CCC(=O)NC1CCCN(c2ccccc2F)C1 (stereo not given) | 6.82
Cc1noc(C)c1CN(C)Cc1csc(-c2ccc(F)cc2)n1 | -8.1
CCOc1ccc(C(=O)NCc2ccnc(N3CCN(C)CC3)c2)cn1 | -7.61
COCc1cc(N(C)Cc2ccccn2)nc(C(C)(C)C)n1 | -10.1
N#Cc1ccc(NCCS(=O)(=O)N2CCc3ccccc32)nc1 | 13
CNS(=O)(=O)c1ccc(CNC(=O)N2CCOC(C)C2)cc1 (stereo not given) | 10.2
Cc1cc(C)n(CC(C)CNC(=O)NCc2csc(C)n2)n1 (stereo not given) | 42.1
O=C(CCSc1ccccc1F)NCc1cccnc1 | -8.87
N#Cc1ccc(CNCCS(=O)(=O)N2CCc3ccccc32)cc1 | -10.2
N#Cc1cccc(S(=O)(=O)NC(=O)c2csc(-c3ccco3)n2)c1 | 16.6
CS(=O)(=O)CCNC(=O)c1cc2ccccc2nc1N1CCCC1 | -7.07
COc1ccc2c(c1)NC(=O)C2OC(=O)CCc1ccc(F)cc1 (stereo not given) | 2.64
O=S(=O)(CC1CCCCO1)Nc1cnn(Cc2ccccc2)c1 (stereo not given) | -7.62
NS(=O)(=O)CCNC(=O)c1cc2ccccc2nc1N1CCCC1 | -5.72
O=C(NCC(=O)N1CCCC1Cc1cccc(F)c1)c1ccccn1 (stereo not given) | -9.78
O=C(NCCSc1ccccc1F)NCc1cccnc1 | -6.59
CCOC(=O)NCCNC(=O)c1cc2ccccc2nc1N1CCCC1 | 2.35
O=C(CCc1ccsc1)Nc1ccnn1C1CCS(=O)(=O)C1 (stereo not given) | 16.5
O=C(NCCCSc1ccc(F)cc1)C1CCc2cn[nH]c2C1 (stereo not given) | -4.46
CCCn1nc2c(cc1=O)CN(c1ncnc3sccc13)CC2 | -10.8
Cc1nc(CNC(=O)N2CCN(c3ccc(Cl)cn3)CC2)no1 | 3.34
CCc1[nH]nc(NC(=O)c2cc[nH]n2)c1C | 6.09

Compound | cytotoxicity at 70.5 h [%]
CCc1[nH]nc(NC(=O)c2ccc(Cl)cn2)c1C | 7.84
O=C(Cc1ccon1)N1CCN(c2ccc(F)cc2Cl)CC1 | -6.01
CNC(=O)NCC(=O)N1CCCC1Cc1cccc(F)c1 (stereo not given) | 2.87
CCc1nc(CCNc2ncccn2)sc1C | -7.68
O=C(CCNCc1cccc2c1OCCCO2)NC1CCCC1 | 6.45
CCc1nc2n(n1)CC(NCc1nc3ccccc3nc1C)CC2 (stereo not given) | 1.64
COCc1nc2cc3c(cc2c(=O)o1)OCCCO3 | -7.11
COc1ccccc1OCc1nc2cc3c(cc2c(=O)o1)OCCCO3 | 31.8
COC(=O)CSCc1noc(-c2ccc(Cl)cc2)n1 | -13.5
COC(=O)CSCc1nc(-c2ccc(Cl)cc2)no1 | 11
Cc1ccc(-c2cc(CN(CC(N)=O)CC(C)C)on2)cc1 | -2.81
CN(C)c1nc(N)nc(CN2CCCC(c3ccccc3)CC2)n1 (stereo not given) | -3.13
Cc1cc(CN(CC(N)=O)CC(C)C)no1 | -4.27
CCn1cnnc1CNC(=O)N1CCOC(c2ccc(Cl)cc2)C1 (stereo not given) | -13.5
CCn1cnnc1CNC(=O)N1CCOC(c2ccccc2Cl)C1 (stereo not given) | -3.84
O=C(Nc1cn[nH]c1)NC1CCN(c2ccccc2OC(F)F)C1 (stereo not given) | 2.39
Cc1cc(CNCC2(O)CCOCC2)ccc1F | -0.741
COC(CNC(=O)c1ccoc1)c1cccc(Cl)c1 (stereo not given) | -5.07
CCc1nc(CCNc2ncccc2S(N)(=O)=O)sc1C | 1.18
CNC(=O)c1cccnc1NCc1ccc(Cn2cccn2)cc1 | -3.1
CNC(=O)c1cccnc1NCc1ccc(Cn2ccnc2)cc1 | 34.2
CC(C)OCCCN(Cc1ccncc1)Cc1cc(F)ccc1F | -4.35
CCOc1ccc2ccccc2c1CNCC1CCS(=O)(=O)C1 (stereo not given) | -3.67
COc1ccccc1NCc1cscn1 | -1.66
